Measured values taken from patent US20230000872A1, “TRPA1 ANTAGONIST FOR THE TREATMENT OF PAIN ASSOCIATED TO DIABETIC NEUROPATHIC PAIN” (Glenmark Pharmaceuticals S.A., priority 2014, published 2023).

Tests used:
[1] = test system: subjects with painful DPN and having preserved peripheral nerve function; experiment: Phase II clinical study of Compound I 250 mg BID, 4 week treatment plus 2 weeks follow up, in subjects with painful DPN and preserved peripheral nerve function (Example 2); format: in vivo, human
Text: Example 2: A Phase II Clinical Study to Evaluate Efficacy, Safety and Tolerability of Compound I in Subjects With Painful Diabetic Neuropathy
• Objectives of this study were To assess the safety, efficacy and tolerability of Compound I in the treatment of pain associated with diabetic peripheral neuropathy (DPN) and to evaluate efficacy of Compound I administered once daily (OD) or twice daily (BID) in subjects with painful DPN and having preserved peripheral nerve function and to investigate effect of Compound I on time to sustained improvement in pain, night-time pain, intensity of pain on neuropathic pain symptoms inventory (NPSI), and sleep in subjects with painful DPN and having preserved peripheral nerve function. • This was a randomized, double-blind, placebo-controlled, parallel group, 4 week treatment followed by 2 weeks follow up study of Compound I 250 mg and placebo BID in subjects with painful DPN and having preserved peripheral nerve function. The study included a total of 136 subjects with DPN and having preserved peripheral nerve function. • Clinical Endpoints were change from baseline in mean 24-hour API score based on an 11-point pain intensity NRS at the end of week 4 and week 6 in • In ITT ([…]) population and • In subject having one or more from baseline average pain intensity (API) score of ≥5, Cold detection threshold >18° C. at baseline as determined by QST and Warm detection threshold <49° C. at baseline as determined by QST

[2] = test system: subjects with painful DPN; experiment: Phase II clinical study of Compound I 250 mg BID, 4 weeks, in subjects with painful diabetic neuropathy (Example 1); format: in vivo, human; design: key to Mean API score (24-hour): 11-point pain intensity NRS (0–10); key to Night-time API Score, mean score: API score on 11-point pain intensity NRS (0–10); details: for Sleep interference score, mean score: 11-point scale; for API Score, mean score: 11-point NRS; for % subject population with >30% Reduction from baseline API Score / % subject population with >50% Reduction from baseline API Score: end of 4 week treatment
Text: Example 1: A Phase II Clinical Study to Evaluate Efficacy, Safety and Tolerability of Compound I in Subjects With Painful Diabetic Neuropathy
• To assess the efficacy of Compound I in the treatment of pain associated with diabetic peripheral neuropathy (DPN). • To evaluate the safety and tolerability of Compound I administered once daily (OD) or twice daily (BID) in subjects with painful DPN. • To investigate effect of Compound I on time to sustained improvement in pain, night-time pain, intensity of pain on neuropathic pain symptoms inventory (NPSI), and sleep in subjects with painful DPN. • To evaluate number of subjects who are responders on the […] of Change (PGIC) Questionnaire, Clinician Global Impression of Change (CGIC) Questionnaire; and number of subjects who achieve various levels of percent reduction in pain. • To investigate the pharmacokinetics (PK) of Compound I in subjects with DPN • To investigate effect of Compound I on the use of rescue medication (ibuprofen 400 mg to 600 mg four times a day or paracetamol 500 mg to 1000 mg two to three times a day) in subjects with painful DPN • To investigate effect of Compound I in subjects with painful DPN who have mechanical hyperalgesia and/or cold allodynia.
This was a multi-center, randomized, double-blind, placebo-controlled, parallel group, 4 week study of Compound I 250 mg BID in subjects with painful DPN. The study included a total of 138 subjects with DPN, randomized in a 1:1 ratio into 250 mg BID Compound I or Placebo. The study was conducted for a total period of 9 weeks as: up to a 2-week screening/washout period, a 1-week placebo-run in period, 4 weeks of treatment period and 2 weeks of follow-up period.
• Men and women (post-menopausal/surgically sterile only) aged between 18-75 (both inclusive) years • Subjects having diabetes mellitus (type 1 or 2) with a distal symmetric chronic sensorimotor painful peripheral neuropathy • A history of DPN pain for at least 6 months and no greater than 5 years. • DN4 “Douleur Neuropathique en 4” questions score of ≥4 • A baseline 24-hour average daily pain intensity score ≥4 and <9 as measured on a 11-point pain intensity NRS (numeric rating scale) • Subjects having stable glycemic control for at least one or two or three months prior to randomization having HbAlc (Glycosylated Hemoglobin) <8% • Subjects detected to have mechanical hyperalgesia and/or cold allodynia (detected with appropriate methodology)
Study medications were: • Placebo matching 250 mg Compound I during the placebo run-in period was taken orally BID in a fed state (30 minutes after breakfast/dinner) every day for day −7 to day −1 during Run-in period. The time interval between 2 consecutive doses must be 12 hours±60 min • 250 mg Compound I potassium granules or matching placebo during day-1 to day-28 treatment period. The time interval between 2 consecutive doses was 12 hours±60 min. • Reference therapy: Placebo to match investigational product, administered BID.
Clinical Endpoints were: • Change from baseline to end of treatment (i.e., baseline to end of week 4) in the mean 24-hour API score based on an 11-point pain intensity NRS • Change from baseline at the end of week 1, 2, 3, 4 and 6 in: • Mean night-time API (average pain intensity) Score (subject diary): night-time is defined as the time between going to bed at night and rising in the morning • Mean night-time worst pain intensity Score (subject diary): worst pain is defined as the subject's assessment of their worst pain intensity for the time period • Mean sleep interference Score (subject diary): A 11-point scale that asks subjects to select the score that best describes how much the pain interfered with sleep during the past 24 hours.

[3] = subjects with one or more of baseline API score ≥5, Cold detection threshold >18° C., Warm detection threshold <49° C. (QST), Week 4
[4] = subjects with one or more of baseline API score ≥5, Cold detection threshold >18° C., Warm detection threshold <49° C. (QST), Week 6
[5] = Sub-group: Hypersensitivity to cold stimulus and/or mechanical stimulus, Week 4
[6] = Sub-group: Moderate to severe pain (NRS score 5-8) and hypersensitivity to cold stimulus and/or mechanical stimulus, Week 4
[7] = Sub-group: Moderate to severe pain (NRS score 5-8) and preserved peripheral sensory neurons, Week 4
[8] = Sub-group: Moderate to severe pain (NRS score 5-8), Week 4
[9] = Sub-group: Preserved peripheral sensory neurons (non-denervation by QST), Week 4
[10] = Week 0 (baseline), 250 mg BID oral
[11] = Week 4 vs baseline, 250 mg BID oral
[12] = Sub-group: Hypersensitivity to cold stimulus and/or mechanical stimulus
[13] = Sub-group: Moderate to severe pain (NRS score 5-8)
[14] = Sub-group: Moderate to severe pain (NRS score 5-8) and hypersensitivity to cold stimulus and/or mechanical stimulus
[15] = Sub-group: Moderate to severe pain (NRS score 5-8) and preserved peripheral sensory neurons
[16] = Sub-group: preserved peripheral sensory neurons

For `Cn1c(=O)c2c(CC(=O)Nc3nc(-c4ccc(F)c(C(F)(F)F)c4F)cs3)csc2n(C)c1=O` [Compound I, N-{4-[2,4-difluoro-3-(trifluoromethyl)phenyl]-1,3-thiazol-2-yl}-2-(1,3-dimethyl-2,4-dioxo-1,2,3,4-tetrahydrothieno[2,3-d]pyrimidin-5-yl)acetamide], the “Mean API score” value ([1]; ITT population, Week 0 (baseline)) was 6.0, the “API score % Reduction from baseline” value ([1]; ITT population, Week 4) was 32.16% and the “Mean API score” value ([1]; ITT population, Week 4) was 4.07. The “API score % Reduction from baseline” value ([1]; ITT population, Week 6) was 40.16%, the “Mean API score” value ([1]; ITT population, Week 6) was 3.59 and the “Mean API score” value ([1]; subjects with one or more of baseline API score ≥5, Cold detection threshold >18° C., Warm detection threshold <49° C. (QST), Week 0 (baseline)) was 5.0. For the same compound, the “API score % Reduction from baseline” value [1, 3] was 49.6%, the “Mean API score” value [1, 3] was 2.52 and the “API score % Reduction from baseline” value [1, 4] was 66.2%. For the same compound, the “Mean API score” value [1, 4] was 1.69, the “Onset of Sustained improvement in 24-hour API Score” value ([2]; 250 mg BID oral) was “Score is achieved in 18 days” and the “Mean API score (24-hour)” value ([2]; Sub-group: Hypersensitivity to cold stimulus and/or mechanical stimulus, Week 0 (baseline)) was 6.1. For the same compound, the “API score % Reduction from baseline” value [2, 5] was 32.78%, the “Mean API score (24-hour)” value [2, 5] was 4.1 and the “Mean API score (24-hour)” value ([2]; Sub-group: Moderate to severe pain (NRS score 5-8) and hypersensitivity to cold stimulus and/or mechanical stimulus, Week 0 (baseline)) was 6.5. For the same compound, the “API score % Reduction from baseline” value [2, 6] was 36.92%, the “Mean API score (24-hour)” value [2, 6] was 4.1 and the “Mean API score (24-hour)” value ([2]; Sub-group: Moderate to severe pain (NRS score 5-8) and preserved peripheral sensory neurons, Week 0 (baseline)) was 6.4. For the same compound, the “API score % Reduction from baseline” value [2, 7] was 35.93%, the “Mean API score (24-hour)” value [2, 7] was 4.1 and the “Mean API score (24-hour)” value ([2]; Sub-group: Moderate to severe pain (NRS score 5-8), Week 0 (baseline)) was 6.3. For the same compound, the “API score % Reduction from baseline” value [2, 8] was 33.33%, the “Mean API score (24-hour)” value [2, 8] was 4.2 and the “Mean API score (24-hour)” value ([2]; Sub-group: Preserved peripheral sensory neurons (non-denervation by QST), Week 0 (baseline)) was 6.2. The “API score % Reduction from baseline” value [2, 9] was 33.33%, the “Mean API score (24-hour)” value [2, 9] was 4.1 and the “Mean daily dose of rescue medication” value [2, 10] was 425 mg. The “Night-time API Score, mean score” value [2, 10] was 5.1, the “Night-time Worst pain intensity Score, mean score” value [2, 10] was 5.3 and the “Sleep interference score, mean score” value [2, 10] was 4.5. For the same compound, the “API Score, mean score” value ([2]; Week 0, 250 mg BID oral) was 6.0, the “Mean daily dose of rescue medication” value ([2]; Week 4, 250 mg BID oral) was 111 mg and the “Night-time API Score, mean score” value ([2]; Week 4, 250 mg BID oral) was 3.4. The “Night-time Worst pain intensity Score, mean score” value ([2]; Week 4, 250 mg BID oral) was 3.5, the “API Score, mean score” value ([2]; Week 4, 250 mg BID oral) was 4.1 and the “Sleep interference score, mean score” value ([2]; Week 4, 250 mg BID oral) was 2.7. The “API Score, % Reduction” value ([2]; Week 4 vs Week 0, 250 mg BID oral) was 31.66%, the “Change in mean daily dose of rescue medication, % Reduction” value [2, 11] was 73.8% and the “Night-time API Score, % Reduction” value [2, 11] was 33.33%. For the same compound, the “Night-time Worst pain intensity Score, % Reduction” value [2, 11] was 33.96%, the “Sleep interference score, % Reduction” value [2, 11] was 40% and the “% subject population with >30% Reduction from baseline API Score” value (“% subject population with >30% Reduction” below) [2, 12] was 59.1%. The “% subject population with >50% Reduction from baseline API Score” value (from here on “% subject population with >50% Reduction”) [2, 12] was 36.4%, the “% subject population with >30% Reduction” value [2, 13] was 58.6% and the “% subject population with >50% Reduction” value [2, 13] was 34.5%. For the same compound, the “% subject population with >30% Reduction” value [2, 14] was 66.7%, the “% subject population with >50% Reduction” value [2, 14] was 44.4% and the “% subject population with >30% Reduction” value [2, 15] was 56.7%. For the same compound, the “% subject population with >50% Reduction” value [2, 15] was 40.0%, the “% subject population with >30% Reduction” value [2, 16] was 52.9% and the “% subject population with >50% Reduction” value [2, 16] was 35.3%.
